Reference: publication PMC9533837 (Antiviral Research, 2003)
≈ marks a conversion by molar mass, not a printed value. Entries after “also recorded” stand apart in the source; their conditions may differ. Like-named read-outs stand apart in the source and are kept apart here.

Key:
VAC Copenhagen [1] = experiment: microbe, parasite or virus in culture; assay type: cell-based, vaccinia virus; conditions: for IC50: Orthopoxvirus vaccinia, Vero, read-out: IC50 VAC Vero
[2] = tested on: MPX Zaire (V79-1-005-Scab); experiment: organism not typed; assay type: cell-based, monkeypox; conditions: for IC50: Vero, read-out: IC50 MPX Vero
[3] = tested on: VAR-YAM (1946 Japan Yamada isolate of VAR major); experiment: organism not typed; assay type: cell-based, variola major; conditions: for IC50: LLC-MK2, read-out: IC50 VAR-YAM LLC-MK2
[4] = tested on: MPX Zaire (V79-1-005-Scab); experiment: organism not typed; assay type: cell-based, monkeypox; conditions: for IC50: LLC-MK2, read-out: IC50 MPX LLC-MK2
CPX Brighton [5] = experiment: organism not typed; assay type: cell-based, cowpox; conditions: for IC50: LLC-MK2, read-out: IC50 CPX LLC-MK2
[6] = tested on: VAR-GAR (1966 Brazil Garcia isolate of VAR minor); experiment: organism not typed; assay type: cell-based, variola minor; conditions: for IC50: LLC-MK2, read-out: IC50 VAR-GAR LLC-MK2
CPX = tested on: CPX; set-up: species or system mice; conditions: mouse, in vivo
VAC [7] = tested on: VAC; set-up: species or system mice; conditions: mouse, in vivo
[8] = tested on: VAR-GAR (1966 Brazil Garcia isolate of VAR minor); experiment: organism not typed; assay type: cell-based, variola minor; conditions: for IC50: Vero, read-out: IC50 VAR-GAR Vero
VAC Copenhagen [9] = experiment: microbe, parasite or virus in culture; assay type: cell-based, vaccinia virus; conditions: for IC50: Orthopoxvirus vaccinia, LLC-MK2, read-out: IC50 VAC LLC-MK2
CPX Brighton [10] = experiment: organism not typed; assay type: cell-based, cowpox; conditions: for IC50: Vero, read-out: IC50 CPX Vero
[11] = tested on: VAR-BSH (1975 Bangladesh isolate of VAR major); experiment: organism not typed; assay type: cell-based, variola major; conditions: for IC50: Vero, read-out: IC50 VAR-BSH Vero
[12] = tested on: VAR-YAM (1946 Japan Yamada isolate of VAR major); experiment: organism not typed; assay type: cell-based, variola major; conditions: for IC50: Vero, read-out: IC50 VAR-YAM Vero
[13] = tested on: VAR-BSH (1975 Bangladesh isolate of VAR major); experiment: organism not typed; assay type: cell-based, variola major; conditions: for IC50: LLC-MK2, read-out: IC50 VAR-BSH LLC-MK2
VAC [14] = conditions: cited from earlier work
[15] = tested on: orthopoxviruses (VAR-BSH, VAR-YAM, VAR-GAR, MPX, CPX, VAC); experiment: organism not typed; assay type: cell-based

| SMILES | Therapeutic index (TI) VAC Vero (VAC Copenhagen [1]) | IC50 (VAC Copenhagen [1]) [µg/mL] | Therapeutic index (TI) MPX Vero [2] | IC50 [2] [µg/mL] | Therapeutic index (TI) VAR-YAM LLC-MK2 [3] | IC50 [3] [µg/mL] | Therapeutic index (TI) MPX LLC-MK2 [4] | IC50 [4] [µg/mL] | Cytotoxicity TC50 LLC-MK2 (LLC-MK2 cells; rhesus monkey) [µg/mL] | Therapeutic index (TI) CPX LLC-MK2 (CPX Brighton [5]) | IC50 (CPX Brighton [5]) [µg/mL] | Therapeutic index (TI) VAR-GAR LLC-MK2 [6] | IC50 [6] [µg/mL] | Therapeutic index (TI) VAR-GAR Vero [8] | Therapeutic index (TI) VAC LLC-MK2 (VAC Copenhagen [9]) | Therapeutic index (TI) CPX Vero (CPX Brighton [10]) | Therapeutic index (TI) VAR-BSH Vero [11] | Therapeutic index (TI) VAR-YAM Vero [12] | Therapeutic index (TI) VAR-BSH LLC-MK2 [13] | inhibitory activity against the orthopoxviruses tested (in words) [15] | also measured |
| --- | --- | --- | --- | --- | --- | --- | --- | --- | --- | --- | --- | --- | --- | --- | --- | --- | --- | --- | --- | --- | --- |
| Nc1nccc2c1ncn2C1C=C(CO)C(O)C1O (single isomer, unassigned; (-)) [C3-Npc A, (−)-9-[trans-2′-trans-3′-dihydroxy-4′-hydroxymethyl-cyclopent-4′-enyl]-3-deazaadenine] | 5000 | 0.02 (≈ 0.0763 µM) | 10000 | 0.01 (≈ 0.0381 µM) | 417 | 0.24 (≈ 0.915 µM) | 2000 | 0.05 (≈ 0.191 µM) | >100 | 1.0 | > 100 | 222 | 0.45 (≈ 1.72 µM) | 2500 | 2000 | 1.0 | 3333 | 2500 | 213 |  | protective effect on CPX-infected mice (CPX): modest protective effect; Cytotoxicity TC50 Vero (Vero cells; African green monkey): >100 µg/mL; protective effect on VAC-infected mice (VAC [7]): modest protective effect; IC50 [8]: 0.04 µg/mL (≈ 0.153 µM); IC50 (VAC Copenhagen [9]): 0.05 µg/mL (≈ 0.191 µM); IC50 (CPX Brighton [10]): > 100 µg/mL; IC50 [11]: 0.03 µg/mL (≈ 0.114 µM); IC50 [12]: 0.04 µg/mL (≈ 0.153 µM); IC50 [13]: 0.47 µg/mL (≈ 1.79 µM) |
| Nc1c2ncn([C@@H]3O[C@H](CO)[C@@H](O)[C@H]3O)c2nc[n+]1[O-] [ANO, Adenosine N1-oxide] |  |  |  |  |  |  |  |  |  |  |  |  |  |  |  |  |  |  |  | little activity | inhibition of VAC virus replication in vitro (VAC [14]): inhibits VAC virus replication in vitro |
| Nc1ncnc2c1ncn2C[C@@H](CO)OCP(=O)(O)O [HPMPA, (S)-9-(3-hydroxy-2-phosphonylmethoxypropyl)adenine] | 12.3 |  | 9.2 |  | 14.7 |  | 10.9 |  |  | 13.0 |  | 21.7 |  | 15.2 | 12.5 | 11.9 | 7.9 | 8.8 | 16.4 |  | inhibition of VAC replication in vitro (VAC [14]): inhibit VAC replication in vitro; IC50 VAC Vero (VAC Copenhagen [1]): 8.1 µg/mL (≈ 26.7 µM); IC50 MPX Vero [2]: 10.9 µg/mL (≈ 35.9 µM); IC50 VAR-YAM LLC-MK2 [3]: 6.8 µg/mL (≈ 22.4 µM); IC50 MPX LLC-MK2 [4]: 9.2 µg/mL (≈ 30.3 µM); Cytotoxicity TC50 LLC-MK2 (LLC-MK2 cells): >100 µg/mL; IC50 CPX LLC-MK2 (CPX Brighton [5]): 7.7 µg/mL (≈ 25.4 µM); IC50 VAR-GAR LLC-MK2 [6]: 4.6 µg/mL (≈ 15.2 µM); Cytotoxicity TC50 Vero (Vero cells): >100 µg/mL; TI against the panel of viruses [15]: 11.9; mean IC50 against the panel of viruses [15]: 8.4 ± 0.67 µg/mL; IC50 VAR-GAR Vero [8]: 6.6 µg/mL (≈ 21.8 µM); IC50 VAC LLC-MK2 (VAC Copenhagen [9]): 8.0 µg/mL (≈ 26.4 µM); IC50 CPX Vero (CPX Brighton [10]): 8.4 µg/mL (≈ 27.7 µM); IC50 VAR-BSH Vero [11]: 12.6 µg/mL (≈ 41.6 µM); IC50 VAR-YAM Vero [12]: 11.4 µg/mL (≈ 37.6 µM); IC50 VAR-BSH LLC-MK2 [13]: 6.1 µg/mL (≈ 20.1 µM) |
| NC(=O)NO [Hydroxyurea, hydroxyurea] |  |  |  |  |  |  |  |  |  |  |  |  |  |  |  |  |  |  |  | inactive |  |
| CN1C(=O)/C(=N\NC(N)=S)c2ccccc21 [Methisazone, methisazone] | 2.2 | 45.8 (≈ 195 µM) | 1.5 | 66.2 (≈ 283 µM) | 2.3 | 43.3 (≈ 185 µM) | 1.2 | 80.4 (≈ 343 µM) | >100 | 2.2 | 45.2 (≈ 193 µM) | 2.3 | 44.1 (≈ 188 µM) | 4.6 | 1.9 | 2.0 | 3.0 | 2.6 | 2.4 |  | Cytotoxicity TC50 Vero (Vero cells; African green monkey): >100 µg/mL; IC50 [8]: 21.6 µg/mL (≈ 92.2 µM); IC50 (VAC Copenhagen [9]): 52 µg/mL (≈ 222 µM); IC50 (CPX Brighton [10]): 49.2 µg/mL (≈ 210 µM); IC50 [11]: 34.6 µg/mL (≈ 148 µM); IC50 [12]: 39 µg/mL (≈ 166 µM); IC50 [13]: 41.2 µg/mL (≈ 176 µM) |
| Nc1ncnc2c1ncn2CCOCP(=O)(O)O [PMEA, 9-[2-(phosphonomethoxy)ethyl]adenine] |  |  |  |  |  |  |  |  |  |  |  |  |  |  |  |  |  |  |  | Neither PMEA nor bis-POM-PMEA was effective |  |
| NC(=O)c1csc([C@@H]2O[C@H](CO)[C@@H](O)[C@H]2O)n1 [Tiazofurin, 2-β-D-ribofuranosylthiazole-4-carboxamide] | 1.0 | > 100 | 4.5 | 20 (≈ 76.8 µM) | 25.6 | 3.9 (≈ 15 µM) | 19.2 | 5.2 (≈ 20 µM) | >100 | 9.1 | 11 (≈ 42.3 µM) | 16.4 | 6.1 (≈ 23.4 µM) | 4.5 | 3.0 | 2.6 | 4.0 | 4.2 | 18.2 |  | Cytotoxicity TC50 Vero (Vero cells; African green monkey): 90.0 µg/mL; IC50 ([15]; LLC-MK2, read-out: mean IC50 on LLC-MK2 cells): 10.8 ± 4.6 µg/mL (≈ 41.5 µM); IC50 ([15]; Vero, read-out: mean IC50 on Vero cells): 36.4 ± 12.9 µg/mL (≈ 140 µM); IC50 [8]: 19.8 µg/mL (≈ 76.1 µM); IC50 (VAC Copenhagen [9]): 33.3 µg/mL (≈ 128 µM); IC50 (CPX Brighton [10]): 34.6 µg/mL (≈ 133 µM); IC50 [11]: 22.6 µg/mL (≈ 86.8 µM); IC50 [12]: 21.4 µg/mL (≈ 82.2 µM); IC50 [13]: 5.5 µg/mL (≈ 21.1 µM) |
| Nc1nc2c(ncn2COCCO)c(=O)[nH]1 [acyclovir, Acyclovir] |  |  |  |  |  |  |  |  |  |  |  |  |  |  |  |  |  |  |  | No other test compounds of this group (acyclovir, brovavir, lobucavir, didanosine, ddC, or d4C) showed any activity; also recorded: failed to inhibit orthopoxvirus replication |  |
| O=c1[nH]c(=O)n([C@@H]2O[C@H](CO)[C@@H](O)[C@@H]2O)cc1/C=C/Br [brovavir, Brovavir] |  |  |  |  |  |  |  |  |  |  |  |  |  |  |  |  |  |  |  | No other test compounds of this group (acyclovir, brovavir, lobucavir, didanosine, ddC, or d4C) showed any activity; also recorded: failed to inhibit orthopoxvirus replication |  |
